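48-hour exposure; five concentrations; linearly interpolated endpoints. Here, GI50 denotes the concentration required for 50% inhibition of growth. TGI: concentration producing complete growth inhibition.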
Columns and labels:
Assay in all cases: growth of human tumour cells (NCI), 48 h; in the data active means GI50 below about 0.43 µM; inactive means the rest
HCT-15 colon = system: HCT-15 colon
SN12C renal = system: SN12C renal
UO-31 renal = system: UO-31 renal
EKVX NSCLC = system: EKVX NSCLC
HS 578T breast = system: HS 578T breast
OVCAR-4 ovarian = system: OVCAR-4 ovarian
OVCAR-8 ovarian = system: OVCAR-8 ovarian
TK-10 renal = system: TK-10 renal
SNB-75 CNS = system: SNB-75 CNS
SK-MEL-28 melanoma = system: SK-MEL-28 melanoma

O=C1CSC2=NC3=C(COC/C3=C\c3ccc(Br)cc3)C(c3ccc(Br)cc3)N12 (stereo not drawn)
> 100 µM: TGI (HCT-15 colon) | TGI (SN12C renal) | TGI (UO-31 renal) | TGI (EKVX NSCLC) | TGI (HS 578T breast) | TGI (OVCAR-4 ovarian) | TGI (OVCAR-8 ovarian) | TGI (TK-10 renal) | TGI (SNB-75 CNS)

CSc1n[nH]c(N)c1C(=O)Nc1ccccc1
> 100 µM: TGI (HCT-15 colon) | TGI (SN12C renal) | TGI (UO-31 renal) | TGI (EKVX NSCLC) | TGI (HS 578T breast) | TGI (OVCAR-4 ovarian) | TGI (SK-MEL-28 melanoma) | TGI (OVCAR-8 ovarian) | TGI (TK-10 renal) | TGI (SNB-75 CNS)

CCOP(=O)(/C=C\n1ccc(N)nc1=O)OCC
> 100 µM: TGI (HCT-15 colon) | TGI (SN12C renal) | TGI (EKVX NSCLC) | TGI (HS 578T breast) | TGI (OVCAR-4 ovarian) | TGI (SK-MEL-28 melanoma) | TGI (OVCAR-8 ovarian) | TGI (TK-10 renal) | TGI (SNB-75 CNS)

COc1ccc(CN2C3CC2CN(c2ccc(-c4cc(OCC(C)(C)O)cn5ncc(C#N)c45)cn2)C3)cn1
inactive: GI50 (HCT-15 colon) 37.2 µM | GI50 (SN12C renal) 2.95 µM | GI50 (UO-31 renal) 7.32 µM | GI50 (EKVX NSCLC) 6.9 µM | GI50 (HS 578T breast) 2.01 µM | GI50 (OVCAR-4 ovarian) 3.63 µM | GI50 (SK-MEL-28 melanoma) > 100 µM | GI50 (OVCAR-8 ovarian) 13.2 µM | GI50 (TK-10 renal) 10.5 µM | GI50 (SNB-75 CNS) 1.32 µM
4.81 µM: TGI (SNB-75 CNS)
7.12 µM: TGI (HS 578T breast)
> 100 µM: TGI (HCT-15 colon) | TGI (SN12C renal) | TGI (UO-31 renal) | TGI (EKVX NSCLC) | TGI (OVCAR-4 ovarian) | TGI (SK-MEL-28 melanoma) | TGI (OVCAR-8 ovarian) | TGI (TK-10 renal)

COc1cc(/C=C/C=C2\CC/C(=C\C=C\c3ccc(O)c(OC)c3)C2=O)ccc1O
> 100 µM: TGI (HCT-15 colon) | TGI (SN12C renal) | TGI (UO-31 renal) | TGI (EKVX NSCLC) | TGI (HS 578T breast) | TGI (OVCAR-4 ovarian) | TGI (SK-MEL-28 melanoma) | TGI (OVCAR-8 ovarian) | TGI (TK-10 renal) | TGI (SNB-75 CNS)

C#CCN(Cc1ccc2nc(OC)c(OC)nc2c1)c1cc(OC)c(OC)c(OC)c1
> 100 µM: TGI (SK-MEL-28 melanoma) | TGI (TK-10 renal) | TGI (SNB-75 CNS)
79.1 µM: TGI (HS 578T breast)
57.2 µM: TGI (SN12C renal)
> 86 µM: TGI (EKVX NSCLC)
64.3 µM: TGI (OVCAR-8 ovarian)
> 89.1 µM: TGI (UO-31 renal)
> 46.9 µM: TGI (OVCAR-4 ovarian)
> 87.5 µM: TGI (HCT-15 colon)

COC1CC(OC2CCC3(C)C(=CCC4C3C(OC(C)=O)C(OC(=O)CC(C)C)C3(C)C(C(C)=O)CCC43O)C2)OC(C)C1OC1CC(OC)C(OC2CC(OC)C(OC3OC(C)C(OC4OC(CO)C(O)C(O)C4O)C(OC)C3O)C(C)O2)C(C)O1 (stereo not drawn)
> 75 µM: TGI (HCT-15 colon) | TGI (SN12C renal) | TGI (UO-31 renal) | TGI (EKVX NSCLC) | TGI (HS 578T breast) | TGI (OVCAR-4 ovarian) | TGI (SK-MEL-28 melanoma) | TGI (OVCAR-8 ovarian) | TGI (TK-10 renal) | TGI (SNB-75 CNS)

COc1cc2c(cc1OC)-c1cc3ccccc3c(=O)n1CC2
> 100 µM: TGI (SN12C renal) | TGI (UO-31 renal) | TGI (EKVX NSCLC) | TGI (OVCAR-4 ovarian) | TGI (OVCAR-8 ovarian)
90.5 µM: TGI (SK-MEL-28 melanoma)
50.7 µM: TGI (TK-10 renal)
92 µM: TGI (SNB-75 CNS)
50.2 µM: TGI (HS 578T breast)

COc1nc(C#CC(C)(C)C)nc(OC)n1
57.8 µM: TGI (TK-10 renal)
35.5 µM: TGI (OVCAR-4 ovarian)
37.6 µM: TGI (OVCAR-8 ovarian)
79 µM: TGI (SN12C renal)
61.5 µM: TGI (HCT-15 colon)
91.8 µM: TGI (HS 578T breast)
> 100 µM: TGI (UO-31 renal) | TGI (EKVX NSCLC) | TGI (SK-MEL-28 melanoma) | TGI (SNB-75 CNS)

CCON1CC(C(=O)OC)=C(O)C1=O
> 100 µM: TGI (HCT-15 colon) | TGI (UO-31 renal) | TGI (EKVX NSCLC) | TGI (HS 578T breast) | TGI (OVCAR-4 ovarian) | TGI (SK-MEL-28 melanoma) | TGI (OVCAR-8 ovarian) | TGI (TK-10 renal) | TGI (SNB-75 CNS)

CCOC(=O)c1nnsc1NN
> 100 µM: TGI (HCT-15 colon) | TGI (SN12C renal) | TGI (UO-31 renal) | TGI (EKVX NSCLC) | TGI (HS 578T breast) | TGI (OVCAR-4 ovarian) | TGI (SK-MEL-28 melanoma) | TGI (OVCAR-8 ovarian) | TGI (TK-10 renal) | TGI (SNB-75 CNS)

Oc1[nH]c2ccccc2c1N=NC(=S)Nc1ccc(Cl)cc1
98.8 µM: TGI (OVCAR-8 ovarian)
> 100 µM: TGI (HCT-15 colon) | TGI (SN12C renal) | TGI (UO-31 renal) | TGI (EKVX NSCLC) | TGI (HS 578T breast) | TGI (OVCAR-4 ovarian) | TGI (SK-MEL-28 melanoma) | TGI (SNB-75 CNS)
94.1 µM: TGI (TK-10 renal)

CC(=O)c1ccc2c(c1)CC1(C2)Cc2ccccc2C1=O (stereo not drawn)
> 100 µM: TGI (HCT-15 colon) | TGI (SN12C renal) | TGI (UO-31 renal) | TGI (EKVX NSCLC) | TGI (HS 578T breast) | TGI (OVCAR-4 ovarian) | TGI (SK-MEL-28 melanoma) | TGI (OVCAR-8 ovarian) | TGI (SNB-75 CNS)
91.4 µM: TGI (TK-10 renal)

CC1(C)[C@H]2CC[C@@]13C(=O)N1C(=O)O[C@@H]([C@H]1Cl)C(Cl)(COCc1ccccc1)C(=O)OCCO[C@H]3C2 (stereo partly drawn)
> 100 µM: TGI (HCT-15 colon) | TGI (UO-31 renal) | TGI (EKVX NSCLC) | TGI (HS 578T breast) | TGI (OVCAR-4 ovarian) | TGI (SK-MEL-28 melanoma) | TGI (OVCAR-8 ovarian) | TGI (SNB-75 CNS)

COc1ccc(COCC[C@H](C)OC2OC(CO[Si](C)(C)C(C)(C)C)C(OC(=O)CCCN=[N+]=[N-])C(OC(=O)CCCN=[N+]=[N-])C2OC(=O)CCCN=[N+]=[N-])cc1 (stereo partly drawn)
59.9 µM: TGI (SNB-75 CNS)
88.7 µM: TGI (HCT-15 colon)
> 100 µM: TGI (SN12C renal) | TGI (EKVX NSCLC) | TGI (HS 578T breast) | TGI (OVCAR-4 ovarian) | TGI (SK-MEL-28 melanoma) | TGI (TK-10 renal)
75.8 µM: TGI (OVCAR-8 ovarian)
66.2 µM: TGI (UO-31 renal)

COC(=O)C1=Nc2c(C)nn(-c3ccccc3)c2N=C(c2ccccc2)C1
> 10 µM: TGI (HCT-15 colon) | TGI (SN12C renal) | TGI (HS 578T breast) | TGI (OVCAR-4 ovarian) | TGI (SK-MEL-28 melanoma) | TGI (OVCAR-8 ovarian) | TGI (TK-10 renal) | TGI (SNB-75 CNS)

COc1ccc(NC(=S)NC(=O)c2ccc3c(c2)Sc2ccccc2O3)c([N+](=O)[O-])c1
91 µM: TGI (OVCAR-4 ovarian)
57.4 µM: TGI (UO-31 renal)
43.2 µM: TGI (HS 578T breast)
23.7 µM: TGI (SNB-75 CNS)
36.9 µM: TGI (TK-10 renal)
> 100 µM: TGI (HCT-15 colon) | TGI (SN12C renal) | TGI (SK-MEL-28 melanoma) | TGI (OVCAR-8 ovarian)

CC(=O)c1cnc2oc3ccc(O)cc3c2c1-c1ccccc1
inactive: GI50 (SNB-75 CNS) 2.57 µM
22 µM: TGI (SNB-75 CNS)
> 100 µM: TGI (HCT-15 colon) | TGI (SN12C renal) | TGI (EKVX NSCLC) | TGI (HS 578T breast) | TGI (SK-MEL-28 melanoma) | TGI (OVCAR-8 ovarian) | TGI (TK-10 renal)
36.6 µM: TGI (OVCAR-4 ovarian)

COc1cc2c(c(O)c1OC)C(=O)C(Cc1ccc(O)cc1)CO2 (stereo not drawn)
36.5 µM: TGI (HS 578T breast)
> 100 µM: TGI (HCT-15 colon) | TGI (SN12C renal) | TGI (UO-31 renal) | TGI (OVCAR-4 ovarian) | TGI (SK-MEL-28 melanoma) | TGI (OVCAR-8 ovarian) | TGI (TK-10 renal)
81.4 µM: TGI (SNB-75 CNS)

CNC(=O)CCCNC(=O)CCCC(=O)N(C)C
> 100 µM: TGI (HCT-15 colon) | TGI (SN12C renal) | TGI (UO-31 renal) | TGI (EKVX NSCLC) | TGI (HS 578T breast) | TGI (SK-MEL-28 melanoma) | TGI (OVCAR-8 ovarian) | TGI (TK-10 renal) | TGI (SNB-75 CNS)

Cc1ccc(C2=CC(=O)/C(=C\C(=O)c3ccc(Cl)cc3)O2)cc1
> 100 µM: TGI (EKVX NSCLC)
9.67 µM: TGI (TK-10 renal)
33.1 µM: TGI (SK-MEL-28 melanoma)
33.5 µM: TGI (OVCAR-4 ovarian)
55.1 µM: TGI (HS 578T breast)
35.3 µM: TGI (HCT-15 colon)
74.5 µM: TGI (SNB-75 CNS)
21.4 µM: TGI (UO-31 renal)
14.6 µM: TGI (OVCAR-8 ovarian)

— PubChem BioAssay (NCI)
